Results reported in patent publication US12595239B2, “Substituted isoxazoline derivatives” (BASF SE, priority 2021, dated 2026).

Key:
Format in all cases: in vivo
Aedes aegypti = assay: whole plant or invertebrate; conditions: 48 h, larval mortality, 2 days, read-out: mortality in comparison with untreated controls
Protocol: For evaluating control of Yellow Fever Mosquito, the test unit consisted of 96-well-microtiter plates containing 200 μl of tap water per well and 5-15 freshly hatched A. aegypti larvae. The active compounds were formulated using a solution containing 75% (v/v) water and 25% (v/v) DMSO. Different concentrations of formulated compounds or mixtures were sprayed onto the insect diet at 2.5 μl, using a custom-built micro atomizer, at two replications.
After application, microtiter plates were incubated at 28±1° C., 80±5% RH for 2 days. Larval mortality was then visually assessed.

Nezara viridula = assay: B.8 Green Soldier Stink Bug, soybean pod spray test; conditions: 120 h, late 3rd instar, after 5 days, read-out: mortality in comparison with untreated controls
Protocol: The active compound was dissolved at the desired concentration in a mixture of 1:1 (vol:vol) distilled water:aceteone. Surfactant (Kinetic) was added at a rate of 0.01% (vol/vol). The test solution was prepared at the day of use. Soybean pods were placed in 90×50 mm glass Petri dishes lined with moistened filter paper and inoculated with ten late 3rd instar N. viridula. Using a hand atomizer, an approximately 2 ml solution was sprayed into each Petri dish. Treated setup was kept at about 25-26° C. and relative humidity of about 65-70%. Percent mortality was recorded after 5 days.

Spodoptera eridania = assay: B.11 Southern Armyworm 2nd instar larvae, lima bean foliar spray test; conditions: 96 h, 4 days after treatment, read-out: mortality in comparison with untreated controls
Protocol: The active compounds were formulated by a Tecan liquid handler in 100% cyclohexanone as a 10′000 ppm solution supplied in tubes. The 10′000 ppm solution was serially diluted in 100% cyclohexanone to make interim solutions. These served as stock solutions for which final dilutions were made by the Tecan in 50% acetone:50% water (v/v) into 10 or 20 ml glass vials. A nonionic surfactant (Kinetic®) was included in the solution at a volume of 0.01% (v/v). The vials were then inserted into an automated electrostatic sprayer equipped with an atomizing nozzle for application to plants/insects. Lima bean plants (variety Sieva) were grown 2 plants to a pot and selected for treatment at the 1st true leaf stage. Test solutions were sprayed onto the foliage by an automated electrostatic plant sprayer equipped with an atomizing spray nozzle. The plants were dried in the sprayer fume hood and then removed from the sprayer. Each pot was placed into perforated plastic bags with a zip closure. Ten to 11 armyworm larvae were placed into the bag and the bags zipped closed. Test plants were maintained in a growth room at about 25° C. and about 20-40% relative humidity for 4 days, avoiding direct exposure to fluorescent light (14:10 light:dark photo-period) to prevent trapping of heat inside the bags. Mortality and reduced feeding were assessed 4 days after treatment, compared to untreated control plants.

O=C(Nc1ncc(F)cc1F)c1cc(OC2=NOC(c3cc(Cl)c(F)c(Cl)c3)(C(F)(F)F)C2)ccc1Cl (stereo not drawn) [II-8, 2-chloro-5-[[5-(3,5-dichloro-4-fluoro-phenyl)-5-(trifluoromethyl)-4H-isoxazol-3-yl]oxy]-N-(3,5-difluoro-2-pyridyl)benzamide]
≥ 75%: mortality at 2500 ppm (Aedes aegypti) | mortality at 300 ppm (Nezara viridula) | mortality at 300 ppm (Spodoptera eridania)
